# Results published in ChEMBL document CHEMBL3507680, “University of Dundee, Gates Library screen for HepG2 cell viability”.
# Assay: Human HepG2 cell viability assay in 384 well format
# Format: toxicity, cell-based
# Design: dose 125 nL, time 70.5 hour; cytotoxicity at 70.5 h: concentration not given beside the values
# Details: HepG2 cells, read-out: Inhibition
row,Structure (SMILES),cytotoxicity at 70.5 h [%]
1,CCN1CCN(C(=O)c2cnc3c(cnn3C3CCCC3)c2)CC1,-6.55
2,CN1CCOC(CNCc2cccc(OC(F)(F)F)c2)C1 (stereo unspecified),-11.5
3,CC1CN(C)CCN1C(=O)c1cnc2c(cnn2C2CCCC2)c1 (stereo unspecified),-2.54
4,Cc1cnn(CC2CCCN2C(=O)c2sccc2-n2cnnn2)c1 (stereo unspecified),-4.41
5,O=C(CCc1ccccn1)N1CCCC(n2cncn2)C1 (stereo unspecified),-13.6
6,Cc1noc(C)c1C(=O)NCC(c1ccsc1)N(C)C (stereo unspecified),-8.5
7,COc1ccc(NC(=O)C2CC(=O)N(C)C2)cn1 (stereo unspecified),-5.38
8,Cc1cc(NC(=O)NCC(C(C)C)N2CCOCC2)n(C)n1 (stereo unspecified),-6.55
9,Cc1cc(C(=O)NCC(c2ccsc2)N(C)C)no1 (stereo unspecified),-5.66
10,CCOc1ccc(C#N)cc1NCC(=O)NC(=O)NC,-3.9
11,OC(CN1CCC(c2ccn[nH]2)CC1)c1cccc(C(F)(F)F)c1 (stereo unspecified),-7.35
12,O=C(c1cnc2c(cnn2C2CCCC2)c1)N1CCCSCC1,-6.43
13,O=C(c1ccc(-n2ccnc2)cc1)N1CCCC(n2ccnc2)C1 (stereo unspecified),-6.23
14,CCN(CC1CCCO1)C(=O)Nc1cc(C(N)=O)ccc1OC (stereo unspecified),-5.25
15,Cc1cnn(CC2CCCN2C(=O)c2ccccc2-n2cnnn2)c1 (stereo unspecified),-4.97
16,Cc1cccc(NC2CCN(C(=O)Nc3ccncc3)CC2)n1,24.2
17,Fc1ccc(-c2cnc(CN3CCOC(Cn4cccn4)C3)o2)cc1 (stereo unspecified),-5.15
18,N#Cc1cccnc1N1CCCN(C(=O)CCc2nccs2)CC1,-1.9
19,Cn1ccc2c(C(=O)N3CCCC3c3noc(C4CC4)n3)cccc21 (stereo unspecified),-1.84
20,CCCc1noc2ncc(C(=O)N3CCCC3c3cnn(C)c3)cc12 (stereo unspecified),-6.19
21,CCc1nccn1CC1CCCN1S(=O)(=O)Cc1ccccc1 (stereo unspecified),-10.3
22,O=C(c1cccc2cn[nH]c12)N1CCCC1c1noc(C2CC2)n1 (stereo unspecified),-2.84
23,CC(C)(C)c1cnc(CN2CCCCC2Cn2cccn2)o1 (stereo unspecified),18.8
24,CCc1c(C(=O)NC2CCS(=O)(=O)C2)cnn1-c1ccc(C)cc1 (stereo unspecified),-6.41

row,Structure (SMILES),cytotoxicity at 70.5 h [%]
1,Cc1cc(CN2CCN(C(=O)NCc3cccs3)CC2)no1,-4.63
2,Cc1cccc(-n2ncc(C(=O)NCC3CCS(=O)(=O)C3)c2C)c1 (stereo unspecified),0.102
3,CCCc1noc(CN2CCC(c3ccnn3CCO)CC2)n1,-0.994
4,N#Cc1ccccc1N1CCCN(C(=O)CCc2ccsc2)CC1,1.39
5,Cc1cc(CN2CCN(C(=O)NCc3csc(C)n3)CC2)no1,17.1
6,Cc1cnn(C2CCCN(C(=O)Cc3n[nH]c4ccccc34)C2)c1 (stereo unspecified),0.337
7,Cc1nc(C2CCN(C(=O)c3cc(C4CC4)[nH]n3)CC2)no1,-0.899
8,Fc1ccc(-c2nc(CN3CCCCC3Cn3cncn3)co2)cc1 (stereo unspecified),-3.61
9,O=c1[nH]c(CCN2CCCC2Cn2cncn2)nc2ccccc12 (stereo unspecified),-9.5
10,Cn1cc(C2CCCN2CCc2nc3ccccc3c(=O)[nH]2)cn1 (stereo unspecified),-2.12
11,Cc1nn(C)c(C)c1C1CCCN1C(=O)c1cnc2onc(C)c2c1 (stereo unspecified),-7.3
12,Cc1cnn(CC2CCCCN2C(=O)c2n[nH]c3ccccc23)c1 (stereo unspecified),16
13,O=C(CCCc1nnc(-c2ccccc2)o1)N1CCC1,-14.2
14,Cc1nc(C2CCCN(C(=O)c3cc(C(C)(C)C)on3)C2)no1 (stereo unspecified),-1.93
15,Cc1cc(CN2CCN(C(=O)NCc3ccoc3)CC2)no1,-1.05
16,Cc1nc(C)n(CC2CCCN(CC(=O)NC3CCOCC3)C2)n1 (stereo unspecified),3.14
17,CCN1CCC(NC(=O)CN2CCCC2Cn2nc(C)nc2C)CC1 (stereo unspecified),3.87
18,CN(Cc1nc(-c2ccoc2)no1)C1CCCN(c2cccnn2)C1 (stereo unspecified),1.16
19,CCn1cnnc1CNC(=O)N(C)C(C)c1cccs1 (stereo unspecified),-0.961
20,CN(CC(=O)NCc1cccnc1N1CCCCC1)C(=O)c1cccs1,0.0514
21,Cn1cnnc1C1CCN(C(=O)CCCOc2ccccc2)CC1,-0.661
22,Cc1ccccc1OCCC(=O)N1CCC(c2nncn2C)CC1,-0.859
23,COc1cccc(S(=O)(=O)CCN2CCn3c(C)nnc3C2)c1,1.41
24,Cc1ncc2c(n1)CN(CCCOc1ccc(C#N)cc1)CC2,3.97

row,Structure (SMILES),cytotoxicity at 70.5 h [%]
1,OC(CN1CCN(Cc2nc(C3CC3)no2)CC1)c1ccccc1 (stereo unspecified),2
2,N#Cc1ccc(OCC(O)CN2CCc3cncnc3C2)cc1 (stereo unspecified),2.9
3,Cc1nnc(CN2CCN(CC(O)c3ccccc3)CC2)o1 (stereo unspecified),-1.4
4,N#CCc1cccc(C(=O)N2CCN(CC(O)c3ccccc3)CC2)c1 (stereo unspecified),2.39
5,COc1ccc2cc(C(=O)N3CCCC3Cn3cc(C)cn3)[nH]c2c1 (stereo unspecified),2.37
6,COc1ccc(OC)c(C(=O)N2CCCCC2Cn2cccn2)c1 (stereo unspecified),-0.39
7,CC(=O)Nc1nc(C(=O)N2CCCC2c2noc(C(C)C)n2)cs1 (stereo unspecified),1.7
8,Cc1noc(C)c1CN1CCOC(CNc2cccnn2)C1 (stereo unspecified),23.1
9,CCc1nc(CN2CCCN(C(=O)C(CC)OC)CC2)cs1 (stereo unspecified),6.03
10,Cn1c(C2CC2)nc2c1CCN(CCOc1cccc(F)c1)C2,5.07
11,Cc1cc(CN(C)C(=O)NC2CCN(Cc3ccccn3)CC2)no1,1.36
12,CCc1nc(CN2CCCN(C(=O)CCCOC)CC2)cs1,2.4
13,Cc1cc(C)n(CC2CCCN2C(=O)c2cccc3[nH]ncc23)n1 (stereo unspecified),-8.53
14,CC1CCCN(Cc2csc(-c3ncccn3)n2)CC1 (stereo unspecified),9.27
15,Nc1nc(CN2CCOC(Cn3cncn3)C2)nc2ccccc12 (stereo unspecified),-3.11
16,Cc1nc(C)n(C2CCCN(C(=O)c3ccc4c(c3)COC4)C2)n1 (stereo unspecified),0.389
17,Cc1nc(CN2CCCC(N(C)CCc3ccncc3)C2)no1 (stereo unspecified),17.8
18,CC(C)=CCN(C)C1CCCN(Cc2noc(C)n2)C1 (stereo unspecified),21.1
19,Cc1ccc(-c2cc(CNC(=O)N3CCOC(C)C3)on2)cc1 (stereo unspecified),-6.72
20,CC(=O)NC1CCCN(C(=O)Nc2cnc3c(cnn3C(C)C)c2)C1 (stereo unspecified),-2.01
21,O=C(NC1CCS(=O)(=O)C1)N1CCN(c2cnccn2)CC1 (stereo unspecified),-7.1
22,COc1cc(CNCc2ccc(C(C)O)cc2)cc2c1OCO2 (stereo unspecified),44.3
23,O=C(C1CCS(=O)(=O)C1)N1CCN(c2cnccn2)CC1 (stereo unspecified),13
24,O=C(CCN1C(=O)CCC1=O)Nc1cnn(-c2ccccc2Cl)c1,10

row,Structure (SMILES),cytotoxicity at 70.5 h [%]
1,O=C(c1cc2c(s1)CCC2)N1CCCCC1Cn1cccn1 (stereo unspecified),-3.46
2,CCc1nc(C2CCCN(C(=O)c3cccc4cn[nH]c34)C2)no1 (stereo unspecified),3.52
3,COc1c(C2CCCN2Cc2cc(C)no2)c(C)nn1C (stereo unspecified),-9.4
4,COc1c(C2CCCN2CC(=O)Nc2cc(C)no2)c(C)nn1C (stereo unspecified),-10.7
5,Cc1nc(C2CCCN2CC(=O)NCCc2ccsc2)no1 (stereo unspecified),-2.7
6,COc1cccc(CCNC(=O)CN2CCCC2c2noc(C)n2)c1 (stereo unspecified),-6.83
7,CCS(=O)(=O)c1ccccc1N1CCC(NC(=O)c2ccc[nH]2)CC1,-1.59
8,Cc1ccc(C(=O)NS(=O)(=O)c2cc(Cl)ccc2Cl)c(=O)[nH]1,-1.03
9,CC(C)c1nc2c(n1C)CCN(Cc1nc(-c3cccs3)no1)C2,-9.62
10,Cc1csc(N2CCCN(C(=O)C(C)n3ccnc3)CC2)n1 (stereo unspecified),-3.25
11,CCc1ncc(C(=O)N2CCCCC2Cn2cccn2)s1 (stereo unspecified),-7.11
12,CCN1CCN(C(=O)C(C)N2CCN(Cc3nccn3C)CC2)CC1 (stereo unspecified),0.843
13,CN1CCN(C(=O)c2ccc(=O)n(C)c2)Cc2ccccc21,-2.39
14,CN(Cc1ccncc1)CC(c1cccs1)N1CCOCC1 (stereo unspecified),36
15,CCc1nc(C2CCCN(C(=O)c3cccc4c3ccn4C)C2)no1 (stereo unspecified),-4.32
16,CCn1ccnc1CN1CCN(C(C)C(=O)N2CCC(C)CC2)CC1 (stereo unspecified),3.72
17,Cc1ccc(-c2noc(CN3CCOC(Cn4cncn4)C3)n2)cc1 (stereo unspecified),-7.15
18,COCCN1CCN(CCCS(=O)(=O)c2ccccc2)CC1C (stereo unspecified),0.059
19,CN(C)C(=O)Cc1nc(CN2CCn3c(nnc3C3CC3)C2)cs1,-18.5
20,CC(=O)N(Cc1noc(C2CC2)n1)C1CCN(Cc2nccn2C)C1 (stereo unspecified),-5.66
21,c1sc(C2CCCC2)nc1CN1CCn2c(nnc2C2CC2)C1,4.56
22,CC(C)c1ncc2c(n1)CN(Cc1nc(Cc3ccccc3)no1)CC2,-24.3
23,CC(C)c1ncncc1C(=O)N1CCCN(Cc2cccs2)CC1,-18.9
24,COC(=O)c1cccc(NC(=O)CCn2nc(-c3cccs3)oc2=O)c1,0.767

row,Structure (SMILES),cytotoxicity at 70.5 h [%]
1,O=C(NCCNc1ncccn1)C1CCN(c2ncccn2)CC1,-10.8
2,CC(NC(=O)CCC(=O)c1cccs1)c1nnc2n1CCCCC2 (stereo unspecified),-15.6
3,Cc1ccc(N(C)C2CCN(C(=O)CCc3ccco3)CC2)nn1,-11.8
4,O=C1NCCN1C1CCCN(Cc2nnc(-c3ccc(F)cc3)o2)C1 (stereo unspecified),-21.9
5,CNC(=O)c1cccc(NC(=O)Cn2nc(-c3cccs3)oc2=O)c1,20.9
6,Cc1ccc(NC2CCN(C(=O)CCNS(C)(=O)=O)CC2)nn1,-19
7,NC(=O)COc1cccc(C(=O)N2CCCC(n3ccnc3)C2)c1 (stereo unspecified),-14.8
8,CCc1nc(C2CCCN2C(=O)CCc2cccs2)no1 (stereo unspecified),-5.42
9,CCOc1cc(C(=O)N2CCCC(n3cncn3)C2)ccc1C (stereo unspecified),-20.7
10,CCc1nc(C2CCCN2C(=O)CCc2ccc3c(c2)OCO3)no1 (stereo unspecified),-24.9
11,CC1COCCN1Cc1nc(-c2cccc(Br)c2)no1 (stereo unspecified),13.8
12,Cc1ccccc1C1(C(=O)NCCN2CCCC2)CCOCC1,-13.9
13,Cc1noc(C(C)N2CCN(CCCN3CCCC3=O)CC2)n1 (stereo unspecified),-11.4
14,Cc1ccccc1CNC(=O)CN1CCN(Cc2nccn2C)CC1,-20.5
15,Cc1cnn(CC2CCCN2Cc2ncc(-c3ccccc3)o2)c1 (stereo unspecified),-18.8
16,Cc1nc(C)n(CC2CCCN(Cc3cccc(C#N)c3)C2)n1 (stereo unspecified),-15.1
17,COc1c(CNCc2cccc(Cn3ccnc3)c2)c(C)nn1C,-1.14
18,Cn1ccc(C(=O)N2CCN(c3ncccn3)CC2)cc1=O,-20.4
19,Cn1cnc(S(=O)(=O)NCCN2CCCCCC2=O)c1Cl,14.4
20,COc1c(CNCc2cccc(CN(C)C)c2)c(C)nn1C,-12.7
